# Assay results: patent US20210239681A1, “COMPOSITIONS AND METHODS FOR […] OF […]-BASED IMMUNOTHERAPEUTICS” (ADVAXIS, INC., priority 2018, published 2021)
# Tests used:
# Type in all cases: cell-based, human
# 10mer specific T cells = test: Co-culture of THP-1 with 10mer specific T cells, cytokine production; design: IFNγ / IL-10 / IL-13 / IL-1β / IL-2 / IL-5 / IL-6 / TNF-α: unit not given here; conditions: for IFNγ production, with 10mer specific T cells: Listeria MOI of 10, optical density
# Text: (§1) Analysis Kits and Reagents: Analysis of cytokine concentrations in culture medium used the U-plex assay kits from Meso Scale Discovery. Expression of T cell receptors specific for E7 peptide bound to HLA-A*02:01 was detected using HLA-A*02:01/peptide tetramers from MBL International (Woburn, Mass.).
# There were several possible explanations for the muted response with THP-1 cells infected with ADSX11: including failure of THP-1 cells to process the 10mer epitope from full length E7 protein, failure of the THP-1 cells to present the processed 10mer E7 peptide on HLA-A*02:01, insufficient incubation of the infected cells to allow synthesis of the E7 protein and accumulation of the MHC/peptide complex on the cell surface, and/or an inhibitory effect of gentamicin. A culture of T cells specific for the 9mer epitope was used as well as a new culture of 10mer specific T cells. The THP-1 cells were infected as before with XFL7 or ADXS11-001 at an MOI of 10. After treatment with gentamicin for one hour, the cells were cultured overnight in the absence of gentamicin. The next day the infected cells were collected and co-cultured with 9mer or 10mer specific T cells. These co-cultures were set up in standard X-VIVO 15 and X-VIVO 15 without gentamicin or phenol red. The co-cultures were incubated overnight before collecting medium for cytokine analysis. The medium was tested for IFNγ concentrations and optical density. […] In addition, the 10mer specific T cells recognized ADXS11-001 infected THP-1 when there was no gentamicin in the medium.
# (§2) To further explore the importance of the overnight incubation of infected THP-1, THP-1 cells infected overnight were compared to THP-1 cells infected for 2 hours. T cells specific for 9mer and 10mer peptides were co-cultured with each of the THP-1 cells and with uninfected or peptide exposed THP-1. As before, medium was collected after an overnight co-culture and cytokines were measured.
# Optimization of infection time required for E7 presentation. THP-1 infected and cultured overnight compared to THP-1 infected for 2 hours and used after gentamicin treatment. Both 9-mer specific T cells and 10-mer specific T cells used. Assays were performed using X-VIVO 15 medium without gentamicin. The following cytokines were measured: IFNγ, IL-1β, IL-2, IL-10, IL-12p70, IL-13, IL-5, IL-6, TNFα.
# THP-1 cells = test: Cytokine production by THP-1 in the absence of T cells; design: IL-6: unit not given here
# Experimental: as §1
# Infection of THP-1: The THP-1 cell line was infected with either ADXS11-001 or XFL7 by incubating 10^6 cells with dilutions of bacteria in a 1 mL volume of RPMI 1640 10% FBS. […] After incubation with gentamicin the cells were washed again and resuspended to the desired cell concentration.
# (§3) T cell cytokine expression analysis. An initial experiment using THP-1 as antigen presenting cells was performed using a T cell culture containing 6% E7 (11-20) specific T cells based upon staining with HLA-A*02:01/peptide tetramer. THP-1 cells were infected as described using two different concentrations of bacteria and then co-cultured with the T cells. Controls included uninfected THP-1 cells and THP-1 cells incubated with (exposed to) either the 9mer or 10mer peptide for one hour. After an overnight co-culture, medium was collected for analysis of cytokines.
# as §2
# Titration studies with different multiplicity of infection (MOI). THP cells were infected for 2 hours with 3 different dilutions (MOI) of Listeria. Infected or uninfected THP cells were then cultured overnight for 24 hours before co-culturing the T cells. Cells were co-cultured overnight before cytokine analysis.
# [1] = tested on: E7 (11-20) specific T cells; test: Initial THP-1 / T cell co-culture cytokine production (T cell culture with 6% E7 (11-20) specific T cells); design: IFNγ / TNF-α / IL-10 / IL-12p70 / IL-13 / IL-1β / IL-2 / IL-4 / IL-6 / IL-8: unit not given here
# Experimental: as §1
# Infection of THP-1: The THP-1 cell line was infected with either ADXS11-001 or XFL7 by incubating 10^6 cells with dilutions of bacteria in a 1 mL volume of RPMI 1640 10% FBS. Incubation with bacteria was at 37° C., 5% CO2 for the indicated times, then extracellular bacteria were eliminated by washing and incubation in the presence of 50 μg/mL gentamicin for 1 hour at 37° C. After incubation with gentamicin the cells were washed again and resuspended to the desired cell concentration.
# as §3
# [2] = 10mer T cells + peptide exposed THP-1, overnight co-culture
# [3] = Cytokine secretion by THP-1 after infection or + E7 peptide (No T cells), mean of triplicate
# [4] = THP-1 + peptide, THP-1 cell alone
# [5] = THP-1 + peptide, THP-1 cells only
# [6] = THP-1 incubated with peptide, absence of T cells
# [7] = T cells and THP-1 incubated with peptide one hour, overnight co-culture
sequence,measurement,setting,value
YMLDLQPETT [10mer],"IFNγ production, with 10mer specific T cells",10mer specific T cells; 50 μg/mL gentamicin,0.226
same,IFNγ,10mer specific T cells; [2],23328
same,IL-1β,10mer specific T cells; [2],3
same,IL-2,10mer specific T cells; [2],452
same,IL-5,10mer specific T cells; [2],1
same,IL-6,10mer specific T cells; [2],31
same,IL-10,10mer specific T cells; [2],12
same,IL-12p70,10mer specific T cells; [2],<LLOD
same,IL-13,10mer specific T cells; [2],23
same,TNF-α,10mer specific T cells; [2],460
same,"IFNγ production, with 10mer specific T cells",10mer specific T cells; Without gentamicin,0.200
same,"IFNγ production, THP-1 alone","THP-1 cells; 50 μg/mL gentamicin, Listeria MOI of 10, optical density",0.058
same,IFNγ,THP-1 cells; [3],36.7 pg/mL
same,IL-1β,THP-1 cells; [3],0.2 pg/mL
same,IL-2,THP-1 cells; [3],4.6 pg/mL
same,IL-4,THP-1 cells; [3],0.6 pg/mL
same,IL-5,THP-1 cells; [3],<LLOD
same,IL-8,THP-1 cells; [3],11.8 pg/mL
same,IL-10,THP-1 cells; [3],0.4 pg/mL
same,IL-12p70,THP-1 cells; [3],0.3 pg/mL
same,IL-13,THP-1 cells; [3],<LLOD
same,TNF-α,THP-1 cells; [3],15.5 pg/mL
same,IFNγ,THP-1 cells; [4],9
same,IL-1β,THP-1 cells; [4],0
same,IL-6,THP-1 cells; [4],<LLOD
same,TNF-α,THP-1 cells; [4],<LLOD
same,IFNγ,THP-1 cells; [5],1
same,IL-1β,THP-1 cells; [5],0
same,IL-6,THP-1 cells; [5],6
same,TNF-α,THP-1 cells; [5],104
same,IFNγ,"THP-1 cells; THP-1 alone, peptide exposed",<LLOD
same,IL-1β,"THP-1 cells; THP-1 alone, peptide exposed",<LLOD
same,IL-2,"THP-1 cells; THP-1 alone, peptide exposed",<LLOD
same,IL-5,"THP-1 cells; THP-1 alone, peptide exposed",<LLOD
same,IL-6,"THP-1 cells; THP-1 alone, peptide exposed",<LLOD
same,IL-10,"THP-1 cells; THP-1 alone, peptide exposed",<LLOD
same,IL-12p70,"THP-1 cells; THP-1 alone, peptide exposed",<LLOD
same,IL-13,"THP-1 cells; THP-1 alone, peptide exposed",<LLOD
same,TNF-α,"THP-1 cells; THP-1 alone, peptide exposed",0
same,IFNγ,THP-1 cells; [6],<LLOD
same,IL-1β,THP-1 cells; [6],0.1
same,IL-2,THP-1 cells; [6],<LLOD
same,IL-4,THP-1 cells; [6],<LLOD
same,IL-6,THP-1 cells; [6],<LLOD
same,IL-8,THP-1 cells; [6],8.1
same,IL-10,THP-1 cells; [6],<LLOD
same,IL-12p70,THP-1 cells; [6],<LLOD
same,IL-13,THP-1 cells; [6],<LLOD
same,TNF-α,THP-1 cells; [6],<LLOD
same,IFNγ,[1]; [7],17140.7
same,IL-1β,[1]; [7],7.0
same,IL-2,[1]; [7],315.2
same,IL-4,[1]; [7],11.9
same,IL-6,[1]; [7],19.6
same,IL-8,[1]; [7],6099.7
same,IL-10,[1]; [7],34.0
same,IL-12p70,[1]; [7],7.4
same,IL-13,[1]; [7],508.4
same,TNF-α,[1]; [7],1192.3
same,T cell cytokine response to peptide presented by THP-1,[1]; relative to T cells co-cultured with control or uninfected THP-1 cells,"elevated levels of IFNγ, IL-13, IL-2, IL-8 and TNFα"
